Experimental data published in patent US11180474B2 (BRISTOL-MYERS SQUIBB COMPANY, priority 2016, dated 2021).

Target: T1, human TLR9 (Homo sapiens, UniProt Q9NR96)
T1 construct: host or cells: HEK-Blue cells
T1 sequence (Q9NR96 26-1032): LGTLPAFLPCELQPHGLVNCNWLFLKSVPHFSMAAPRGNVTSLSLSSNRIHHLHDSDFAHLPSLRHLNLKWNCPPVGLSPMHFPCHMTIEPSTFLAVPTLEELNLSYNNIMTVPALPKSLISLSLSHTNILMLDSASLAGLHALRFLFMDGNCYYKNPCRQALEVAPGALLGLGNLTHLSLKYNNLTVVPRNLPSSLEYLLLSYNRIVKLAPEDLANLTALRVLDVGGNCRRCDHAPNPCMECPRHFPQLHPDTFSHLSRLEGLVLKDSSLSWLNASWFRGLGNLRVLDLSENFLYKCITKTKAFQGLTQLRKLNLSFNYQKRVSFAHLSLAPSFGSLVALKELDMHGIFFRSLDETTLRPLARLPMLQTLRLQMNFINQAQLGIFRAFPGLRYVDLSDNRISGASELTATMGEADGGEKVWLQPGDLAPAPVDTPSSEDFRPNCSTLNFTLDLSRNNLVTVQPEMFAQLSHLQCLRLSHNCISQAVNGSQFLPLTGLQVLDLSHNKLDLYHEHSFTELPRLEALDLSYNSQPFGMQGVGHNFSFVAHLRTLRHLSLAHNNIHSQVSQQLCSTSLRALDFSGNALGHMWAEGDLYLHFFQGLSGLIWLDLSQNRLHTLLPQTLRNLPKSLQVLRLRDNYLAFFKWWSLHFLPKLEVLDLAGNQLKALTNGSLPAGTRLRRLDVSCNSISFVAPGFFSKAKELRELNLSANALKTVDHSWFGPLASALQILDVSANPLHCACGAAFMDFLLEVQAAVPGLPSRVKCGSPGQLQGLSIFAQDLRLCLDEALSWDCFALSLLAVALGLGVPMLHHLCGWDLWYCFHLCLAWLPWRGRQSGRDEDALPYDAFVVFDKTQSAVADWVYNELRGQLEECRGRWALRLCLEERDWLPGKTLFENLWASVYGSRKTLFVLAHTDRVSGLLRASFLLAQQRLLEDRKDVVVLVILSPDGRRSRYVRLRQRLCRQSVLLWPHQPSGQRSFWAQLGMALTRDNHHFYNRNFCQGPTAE
Test: TLR9 inhibition reporter assay (HEK-Blue cells, SEAP reporter, ODN2006 stimulation)
Type: cell-based
Conditions: HEK-Blue cells overexpressing human TLR9, ODN2006 5 nM
How it was run: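 Human TLR7/8/9 HEK-Blue reporter lines; dose range 0.05 nM–50 μM; 30 min RT preincubation; stimulus gardiquimod 7.5 μM / R848 15.9 μM / ODN2006 5 nM respectively; 22 h, 37 °C; SEAP detected colorimetrically.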

Row | SMILES | IC50 [µM]
1 | COc1ccc(-c2[nH]c3ccc(C4CCN(C(=O)CN5CCC[C@H](C(=O)N6CCCC6)C5)CC4)cc3c2C(C)C)cc1OC [Example 287, (S)-1-(4-(2-(3,4-dimethoxyphenyl)-3-isopropyl-1H-indol-5-yl)piperidin-1-yl)-2-(3-(pyrrolidine-1-carbonyl)piperidin-1-yl)ethan-1-one] | 2.28
2 | COc1ccc(-c2[nH]c3ccc(C4CCN(C(=O)CN5CCC[C@H](C(=O)N6CCN(c7cccc(C(F)(F)F)c7)CC6)C5)CC4)cc3c2C(C)C)cc1OC [Example 290, (S)-1-(4-(2-(3,4-dimethoxyphenyl)-3-isopropyl-1H-indol-5-yl)piperidin-1-yl)-2-(3-(4-(3-(trifluoromethyl)phenyl)piperazine-1-carbonyl)piperidin-1-yl)ethan-1-one] | 5.34
3 | COc1ccc(-c2[nH]c3ccc(C4CCN(C(=O)CN5CCC[C@H](C(=O)N6CCC(CCO)CC6)C5)CC4)cc3c2C(C)C)cc1OC [Example 291, (S)-1-(4-(2-(3,4-dimethoxyphenyl)-3-isopropyl-1H-indol-5-yl)piperidin-1-yl)-2-(3-(4-(2-hydroxyethyl)piperidine-1-carbonyl)piperidin-1-yl)ethan-1-one] | 2.31
4 | COc1ccc(-c2[nH]c3ccc(C4CCN(C(=O)CN5CCC[C@H](C(=O)N6CCCC(O)C6)C5)CC4)cc3c2C(C)C)cc1OC (stereo partly drawn) [Example 292, 1-(4-(2-(3,4-dimethoxyphenyl)-3-isopropyl-1H-indol-5-yl)piperidin-1-yl)-2-((3S)-3-(3-hydroxypiperidine-1-carbonyl)piperidin-1-yl)ethan-1-one] | 1.81
5 | COc1ccc(-c2[nH]c3ccc(C4CCN(C(=O)CN5CCC[C@H](C(=O)N6CCN(Cc7ccc(Br)cc7)CC6)C5)CC4)cc3c2C(C)C)cc1OC [Example 294, (S)-2-(3-(4-(4-bromobenzyl)piperazine-1-carbonyl)piperidin-1-yl)-1-(4-(2-(3,4-dimethoxyphenyl)-3-isopropyl-1H-indol-5-yl)piperidin-1-yl)ethan-1-one] | 2.22
6 | COc1ccc(-c2[nH]c3ccc(C4CCN(C(=O)CN5CCC[C@H](C(=O)NCCNC(C)=O)C5)CC4)cc3c2C(C)C)cc1OC [Example 295, (S)—N-(2-acetamidoethyl)-1-(2-(4-(2-(3,4-dimethoxyphenyl)-3-isopropyl-1H-indol-5-yl)piperidin-1-yl)-2-oxoethyl) piperidine-3-carboxamide] | 5.31
7 | COc1ccc(-c2[nH]c3ccc(C4CCN(C(=O)CN5CCC[C@H](C(=O)NC6(CO)CCCC6)C5)CC4)cc3c2C(C)C)cc1OC [Example 296, (S)-1-(2-(4-(2-(3,4-dimethoxyphenyl)-3-isopropyl-1H-indol-5-yl)piperidin-1-yl)-2-oxoethyl)-N-(1-(hydroxymethyl)cyclopentyl)piperidine-3-carboxamide] | 3.03
8 | COc1ccc(-c2[nH]c3ccc(C4CCN(C(=O)CN5CCC[C@H](C(=O)NCC#N)C5)CC4)cc3c2C(C)C)cc1OC [Example 297, (S)—N-(cyanomethyl)-1-(2-(4-(2-(3,4-dimethoxyphenyl)-3-isopropyl-1H-indol-5-yl)piperidin-1-yl)-2-oxoethyl)piperidine-3-carboxamide] | 3.05
9 | COc1ccc(-c2[nH]c3ccc(C4CCN(C(=O)CN5CCC[C@H](C(=O)NCC(N)=O)C5)CC4)cc3c2C(C)C)cc1OC [Example 298, (S)—N-(2-amino-2-oxoethyl)-1-(2-(4-(2-(3,4-dimethoxyphenyl)-3-isopropyl-1H-indol-5-yl)piperidin-1-yl)-2-oxoethyl)piperidine-3-carboxamide] | 3.94
10 | COc1ccc(-c2[nH]c3ccc(C4CCN(C(=O)CN5CCC[C@H](C(=O)N6CC7CNCC7C6)C5)CC4)cc3c2C(C)C)cc1OC (stereo partly drawn) [Example 299, 1-(4-(2-(3,4-dimethoxyphenyl)-3-isopropyl-1H-indol-5-yl)piperidin-1-yl)-2-((3 S)-3-(octahydropyrrolo[3,4-c]pyrrole-2-carbonyl)piperidin-1-yl)ethan-1-one] | 6.99
11 | COc1ccc(-c2[nH]c3ccc(C4CCN(C(=O)CN5CCC[C@H](C(=O)N6CC[C@H](O)C6)C5)CC4)cc3c2C(C)C)cc1OC [Example 301, 1-(4-(2-(3,4-dimethoxyphenyl)-3-isopropyl-1H-indol-5-yl)piperidin-1-yl)-2-((S)-3-((S)-3-hydroxypyrrolidine-1-carbonyl)piperidin-1-yl)ethan-1-one] | 3.12
12 | COc1ccc(-c2[nH]c3ccc(C4CCN(C(=O)CN5CCC[C@@H](C(=O)N(C)C(C)C)C5)CC4)cc3c2C(C)C)cc1OC [Example 304, (R)-1-(2-(4-(2-(3,4-dimethoxyphenyl)-3-isopropyl-1H-indol-5-yl)piperidin-1-yl)-2-oxoethyl)-N-isopropyl-N-methylpiperidine-3-carboxamide] | 2.75
13 | COc1ccc(-c2[nH]c3ccc(C4CCN(C(=O)CN5CCC[C@@H](C(=O)N6CCC(CCO)CC6)C5)CC4)cc3c2C(C)C)cc1OC [Example 306, (R)-1-(4-(2-(3,4-dimethoxyphenyl)-3-isopropyl-1H-indol-5-yl)piperidin-1-yl)-2-(3-(4-(2-hydroxyethyl)piperidine-1-carbonyl)piperidin-1-yl)ethan-1-one] | 2.68

The remaining lines, values ahead:

Row | IC50 [µM] | SMILES
14 | 0.603 | COc1ccc(-c2[nH]c3ccc(C4CCN(C(=O)CN5CCC[C@H](C(=O)N6CCN(C(C)C)CC6)C5)CC4)cc3c2C(C)C)cc1OC [Example 286, (S)-1-(4-(2-(3,4-dimethoxyphenyl)-3-isopropyl-1H-indol-5-yl)piperidin-1-yl)-2-(3-(4-isopropylpiperazine-1-carbonyl)piperidin-1-yl)ethan-1-one]
15 | 0.633 | COc1ccc(-c2[nH]c3ccc(C4CCN(C(=O)CN5CCC[C@H](C(=O)N(C)C(C)C)C5)CC4)cc3c2C(C)C)cc1OC [Example 288, (S)-1-(2-(4-(2-(3,4-dimethoxyphenyl)-3-isopropyl-1H-indol-5-yl)piperidin-1-yl)-2-oxoethyl)-N-isopropyl-N-methylpiperidine-3-carboxamide]
16 | 0.502 | COc1ccc(-c2[nH]c3ccc(C4CCN(C(=O)CN5CCC[C@H](C(=O)N6CCC(N(C)C)CC6)C5)CC4)cc3c2C(C)C)cc1OC [Example 289, (S)-1-(4-(2-(3,4-dimethoxyphenyl)-3-isopropyl-1H-indol-5-yl)piperidin-1-yl)-2-(3-(4-(dimethylamino)piperidine-1-carbonyl)piperidin-1-yl)ethan-1-one]
17 | 0.777 | COc1ccc(-c2[nH]c3ccc(C4CCN(C(=O)CN5CCC[C@H](C(=O)N6CCN(CCN7CCCC7)CC6)C5)CC4)cc3c2C(C)C)cc1OC [Example 293, (S)-1-(4-(2-(3,4-dimethoxyphenyl)-3-isopropyl-1H-indol-5-yl)piperidin-1-yl)-2-(3-(4-(2-(pyrrolidin-1-yl)ethyl)piperazine-1-carbonyl)piperidin-1-yl)ethan-1-one]
18 | 0.321 | COc1ccc(-c2[nH]c3ccc(C4CCN(C(=O)CN5CCC[C@H](C(=O)N6C(C)CCC6C)C5)CC4)cc3c2C(C)C)cc1OC (stereo partly drawn) [Example 300, 1-(4-(2-(3,4-dimethoxyphenyl)-3-isopropyl-1H-indol-5-yl)piperidin-1-yl)-2-((3S)-3-(2,5-dimethylpyrrolidine-1-carbonyl)piperidin-1-yl)ethan-1-one]
19 | 0.564 | COc1ccc(-c2[nH]c3ccc(C4CCN(C(=O)CN5CCC[C@@H](C(=O)N6CCN(C(C)C)CC6)C5)CC4)cc3c2C(C)C)cc1OC [Example 302, (R)-1-(4-(2-(3,4-dimethoxyphenyl)-3-isopropyl-1H-indol-5-yl)piperidin-1-yl)-2-(3-(4-isopropylpiperazine-1-carbonyl)piperidin-1-yl)ethan-1-one]
20 | 1.79 | COc1ccc(-c2[nH]c3ccc(C4CCN(C(=O)CN5CCC[C@@H](C(=O)N6CCCC6)C5)CC4)cc3c2C(C)C)cc1OC [Example 303, (R)-1-(4-(2-(3,4-dimethoxyphenyl)-3-isopropyl-1H-indol-5-yl)piperidin-1-yl)-2-(3-(pyrrolidine-1-carbonyl)piperidin-1-yl)ethan-1-one]
21 | 0.561 | COc1ccc(-c2[nH]c3ccc(C4CCN(C(=O)CN5CCC[C@@H](C(=O)N6CCC(N(C)C)CC6)C5)CC4)cc3c2C(C)C)cc1OC [Example 305, (R)-1-(4-(2-(3,4-dimethoxyphenyl)-3-isopropyl-1H-indol-5-yl)piperidin-1-yl)-2-(3-(4-(dimethylamino)piperidine-1-carbonyl)piperidin-1-yl)ethan-1-one]
